{"source": "a melting point compilation (Tetko et al.; mined from patent text by program, amines drawn as free bases though some values may be those of a salt)"}
{"units": {"melting point": "°C"}}
{"molecule": "CCC(CC)c1ccc(Cl)c2nc3n(c12)CCCCN3c1ccc(SC)cc1C", "melting point": "113 to 115"}
{"molecule": "CC(C)(C)OC(=O)N1CC(CCl)c2c1cc(NC(=O)OCC1c3ccccc3-c3ccccc31)c1ccccc21", "note": "(stereo unspecified)", "melting point": "103 to 106"}
{"molecule": "CC(C)(C)Sc1c(CC(C)(C)C(=O)O)n(Cc2ccc(Cl)cc2)c2cc(OCc3ccc4ccccc4n3)ccc12", "melting point": "165 to 167"}
{"molecule": "N=C(N)Nc1ccc(C(=O)Nc2ncc(Cl)[nH]2)cc1", "melting point": "263 to 265"}
{"molecule": "CCCCc1c(C(=O)O)ccc2ccc(OC)cc12", "melting point": "123 to 125"}
{"molecule": "NC(=NCC(F)(F)F)Nc1ccn(CCO)n1", "melting point": 82}
{"molecule": "CCN(Cc1ccc(Cl)nc1)C1=C([N+](=O)[O-])C2CCC(O2)N1C", "note": "(stereo unspecified)", "melting point": "125 to 126"}
{"molecule": "CC1C2=CCC3C(CCC4(C)C(O)CCC34)C2(C)CCC1O", "note": "(stereo unspecified)", "melting point": "210 to 214"}
{"molecule": "CCNC(=O)Nc1nc2cc(-c3cccnc3)cc(N3CCOCC3)n2n1", "melting point": "298 to 300"}
{"molecule": "COc1cccc2c1Oc1cc(Cl)ccc1C2", "melting point": "106 to 108"}
{"molecule": "Oc1cccc(-c2cn3ccc4ccccc4c3n2)c1", "melting point": "201 to 202"}
{"molecule": "O=C(Nc1ccc(-n2nc(C(F)(F)F)cc2C(F)(F)F)cc1)c1ccc(-n2cccc2)cc1", "melting point": "249 to 252"}
{"molecule": "CN1CCCCC1=NC(=O)Nc1ccccc1", "melting point": "145 to 158"}
{"molecule": "COc1ccc(C(=O)Cl)cc1I", "melting point": 58}
{"molecule": "CCc1c(Cc2ccccc2)c2ccc(OC)cc2n1CC(=O)NN", "melting point": "164 to 166"}
{"molecule": "Cc1c(SCCCN2CCNCC2)ccnc1CNc1cnc2ccccc2c1", "melting point": "105 to 108"}
{"molecule": "CC(=O)n1ccc2cc(C(=O)NC(C)(C)C)ccc21", "melting point": 187}
{"molecule": "OC1CSC(Oc2cccnc2-c2cccs2)C(O)C1O", "note": "(stereo unspecified)", "melting point": 130}
{"molecule": "COc1ccc2c(c1)C(=O)CC21CNC(=O)C1", "note": "(stereo unspecified)", "melting point": "179 to 180"}
{"molecule": "CC(C)OC(=O)c1cc(-n2c(=O)[nH]c3c(c2=O)CCC3)c(F)cc1Cl", "melting point": "204 to 207"}
{"molecule": "O=C(NS(=O)(=O)c1ccc(Cl)cc1)N1C(=O)C(c2ccccc2)N1C(c1ccccc1)c1ccccc1", "note": "(stereo unspecified)", "melting point": "162 to 163"}
{"molecule": "Nc1ccc(Sc2cc(Cl)cc(Cl)c2)c(Cl)c1", "melting point": "157 to 160"}
{"molecule": "Cc1[nH]c(CN(C)C)c(C)c1-c1ccnc(Nc2ccc(F)cc2)n1", "melting point": "88.4 to 91.6"}
{"molecule": "Nc1cc(Cl)c(Cl)cc1NCCO", "melting point": 120}
{"molecule": "C=C(C)Cc1cccc(C(=O)O)c1S", "melting point": "89 to 92"}
{"molecule": "Nc1cc(=O)n(Cc2ccccc2F)[nH]1", "melting point": 146}
{"molecule": "COc1cc(C(=O)NCC2c3ccccc3CCN2CCO)cc(OC)c1OC", "note": "(stereo unspecified)", "melting point": "138 to 140"}
{"molecule": "CCCCN(Cc1ccc(-c2ccccc2S(=O)(=O)NC(=O)OC(C)(C)C)cc1)C(=O)N1CCCc2ccccc21", "melting point": "> 67"}
{"molecule": "COc1ccccc1NC(=O)Nc1nc(NCCC(=O)O)nc(Nc2ccccc2-c2ccccc2)n1", "melting point": "196 to 205"}
{"molecule": "CCC(=O)c1cc(C(=O)O)c(=O)[nH]c1CC", "melting point": "180 to 182"}
{"molecule": "COC(=O)C(=NO)c1nc2cc(C)ccc2oc1=O", "melting point": "176 to 177"}
{"molecule": "CCOC(=O)c1cc(-c2ccc(Cl)cc2)n(-c2ccc(OC)cc2)n1", "melting point": "107 to 108"}
{"molecule": "O=C(O)CCc1cn(Cc2ccc(OCc3cccnc3)cc2)cc1-c1ccccc1", "melting point": "131 to 132"}
{"molecule": "CN1Cc2c(C(=O)OCCO)ncn2-c2ccc(F)cc2C1=O", "melting point": "202 to 204"}
{"molecule": "CC(=O)OCC(C)(C)c1cc(OS(C)(=O)=O)ccc1OC(C)=O", "melting point": "49 to 51"}
{"molecule": "CC(C)Oc1cc(CCCNC(=O)NS(=O)(=O)c2ccccc2)n(Cc2ccc(Cl)cc2Cl)n1", "melting point": 149}
{"molecule": "CCN1CCN(c2nc(-c3ccc(OCCO)cc3OC)cc3ccccc23)CC1", "melting point": "140 to 142"}
{"molecule": "CC1=C(C)C(Cc2csc3ccccc23)N(C)C=C1", "note": "(stereo unspecified)", "melting point": "185 to 190"}
{"molecule": "O=C(Nc1nc(Cl)cc(Cl)n1)NS(=O)(=O)Nc1ccccc1C(=O)C1CC1", "melting point": "114 to 116"}
{"molecule": "Cc1cc2n[nH]c(=O)n2nc1-c1cccc([N+](=O)[O-])c1", "melting point": "> 300"}
{"molecule": "O=C1C(=O)c2c(nc3ccccn23)-c2cc([N+](=O)[O-])ccc21", "melting point": "> 300"}
{"molecule": "CC(C)CC(NC(=O)C(Cc1ccccc1)NC(=O)C1CCCCC1C(=O)O)C(=O)O", "note": "(stereo unspecified)", "melting point": "84 to 122"}
{"molecule": "O=[N+]([O-])c1ccc(-c2cc(-c3ccc(Cl)cc3)[nH]c2C(F)(F)F)s1", "melting point": "65 to 66"}
{"molecule": "C#Cc1ccc(C)cc1CC(=O)O", "melting point": "98 to 101"}
{"molecule": "O=C1Nc2ccc(Cl)cc2C1(O)c1ccccc1OCc1ccccc1", "note": "(stereo unspecified)", "melting point": 197}
{"molecule": "CCCn1c(=O)c2[nH]c(C3CCCC3)nc2n(CCc2ccc(N)cc2)c1=O", "melting point": "248 to 250"}
{"molecule": "Cc1ccc(Cc2cnc(NCCCN(c3ccccc3)c3ccccn3)[nH]c2=O)cn1", "melting point": "216 to 218"}
{"molecule": "C[C@H](NC(=O)c1c[nH]c2ncc(-c3cn(-c4cccc(Cl)c4)cn3)nc12)C(C)(C)C", "melting point": "337 to 339"}
{"molecule": "O=C(O)Cc1csc(N=C2SC[C@@H]3Cc4ccccc4CN23)n1", "melting point": 185}
{"molecule": "CC(C)(C)OC(=O)NCc1cccc2c1C(=O)N(C1CCC(=O)NC1=O)C2=O", "note": "(stereo unspecified)", "melting point": "180 to 182"}
{"molecule": "O=C(c1ccccc1)c1ccc2c(c1)C1(c3ccccc3-2)c2ccccc2-c2ccc(C(=O)c3ccccc3)cc21", "melting point": "260 to 261"}
{"molecule": "COCCOCCN1C(=O)C2(COc3cc4c(cc32)OCCO4)c2c(OC)cc(OC)cc21", "note": "(stereo unspecified)", "melting point": "158 to 160"}
{"molecule": "O=C1c2ccccc2-c2c1c1ccccc1c(=O)n2CCCCCCNS(=O)(=O)c1ccccc1", "melting point": "150 to 152"}
{"molecule": "CCCN(CCC)C(=O)Cn1c(-c2ccc(Br)cc2)nc2cccnc21", "melting point": "153 to 155"}
{"molecule": "COc1cc(C(=O)NC(C)(C)C)ccc1S(=O)(=O)N1C(=O)C(N)(c2ccccc2Cl)c2cc(Cl)ccc21", "note": "(stereo unspecified)", "melting point": "263 to 265"}
{"molecule": "CCCCCCCCCC=COC1OC(CO)C(O)C(O)C1NC(C)=O", "note": "(stereo unspecified)", "melting point": "152 to 154"}
{"molecule": "NC(=O)N(O)CC1CCCCC1", "melting point": "143 to 144"}
{"molecule": "CC1CCCC(C)N1Cc1ccc2cc(NC(=O)c3ccc(-c4ccc(Cl)cc4)cc3)ccc2c1", "note": "(stereo unspecified)", "melting point": "220 to 222"}
{"molecule": "Cc1nnc(-c2ccnc(Nc3cc(F)ccc3F)c2)o1", "melting point": "202 to 203"}
{"molecule": "NC(=O)N1CCN(c2nn(-c3ccccc3F)c3ccccc23)CC1", "melting point": "148 to 150"}
{"molecule": "CCOC(=O)Nc1cc(C(C)C(O)(Cn2cncn2)c2ccc(F)cc2F)ccn1", "note": "(stereo unspecified)", "melting point": "177 to 179"}
{"molecule": "N#Cc1nc(C#Cc2ccccc2)c(C#Cc2ccccc2)nc1C#N", "melting point": "226 to 227"}
{"molecule": "CC(C)(C)OCCCC1(O)c2ccccc2COc2ccccc21", "note": "(stereo unspecified)", "melting point": "113 to 115"}
{"molecule": "O=S(=S)(OC1O[C@H](COCc2ccccc2)[C@@H](OCc2ccccc2)[C@H](OCc2ccccc2)[C@H]1OCc1ccccc1)c1ccccc1", "note": "(stereo partly specified)", "melting point": "106 to 108"}
{"molecule": "CCNC(=O)NC1CCCc2sccc21", "note": "(stereo unspecified)", "melting point": "184 to 188"}
{"molecule": "c1ccc(-c2n[nH]cc2-c2ccnc(-c3ccc(OCCn4ccnc4)cc3)c2)nc1", "melting point": 108}
{"molecule": "N=C(N)NCCc1ccc(OCCC2Oc3ccccc3N(Cc3ccc4ccccc4c3)C2=O)cc1", "note": "(stereo unspecified)", "melting point": "173 to 178"}
{"molecule": "NNC(=O)c1cnc2n(c1=O)CCCCC2", "melting point": "184 to 186"}
{"molecule": "CN1CC[C@@]2(c3cccc(O)c3)C[C@@H](N=[N+]=[N-])CC[C@H]2C1", "note": "(racemic)", "melting point": "139 to 140"}
{"molecule": "CN(C)CCCC(c1ccncc1)S(=O)(=O)c1ccc(Cl)cc1", "note": "(stereo unspecified)", "melting point": "78 to 80"}
{"molecule": "Cc1cc(CN2CCN(C(C)C)CC2)cc2c1Cc1c(-c3ccsc3)n[nH]c1-2", "melting point": "113 to 114"}
{"molecule": "OCc1ncccc1OCc1ccccc1", "melting point": "78.7 to 79.2"}
{"molecule": "O=C(O)c1cccc(OCc2ccccc2)c1[N+](=O)[O-]", "melting point": "198 to 200"}
{"molecule": "CSC1=C(c2ccc(O)cc2)C(=O)c2cc(O)ccc21", "melting point": "90 to 92"}
{"molecule": "O=C(Nc1cccc(Br)c1)NC1C(=O)N(CC23CC4CC(CC(C4)C2)C3)c2ccccc2N(c2ccccc2)C1=O", "note": "(stereo unspecified)", "melting point": 254}
{"molecule": "COc1ccccc1C=C1N=C(C)OC1=O", "melting point": "151 to 153"}
{"molecule": "CCOC(=O)c1cc2c(F)cccc2nc1Cl", "melting point": 97}
{"molecule": "CC(C)(C)OC(=O)N1CCC[C@H]1COc1cccc2[nH]ccc12", "melting point": "40 to 41"}
{"molecule": "CCOC(=O)CCc1cccc(-c2c(CC(=O)Nc3ccc(F)cc3C(F)(F)F)c(=O)oc3ccccc23)c1", "melting point": "163 to 164"}
{"molecule": "CC(=O)S[C@H]1CNC(=S)C1", "melting point": "91 to 93"}
{"molecule": "CC1(Cc2cc(C(C)(C)C)c(O)c(C(C)(C)C)c2)CCCCC1=O", "note": "(stereo unspecified)", "melting point": 75}
{"molecule": "Clc1nccc(-n2ccnc2)n1", "melting point": 128}
{"molecule": "CC(C)C[C@H](NC(=S)Nc1ccccc1)C(=O)N[C@H]1CCOC1O", "note": "(stereo partly specified)", "melting point": "62 to 63.8"}
{"molecule": "COc1nc(C)n2nc(S(=O)(=O)Cl)nc2c1Cl", "melting point": "100 to 101"}
{"molecule": "CC(=O)COc1ccc2c(c1)C(=O)NC(C)(C)O2", "melting point": "125 to 126"}
{"molecule": "O=C1CCSc2c1ccc(Cl)c2Cl", "melting point": "93 to 102"}
{"molecule": "CC(=O)ON(C)C(=O)C(C)Nc1c([N+](=O)[O-])cc(C)cc1[N+](=O)[O-]", "note": "(stereo unspecified)", "melting point": "137 to 138"}
{"molecule": "CCC(C(=O)c1ccc(Cl)cc1)n1ncn(-c2ccc(N3CCNCC3)cc2)c1=O", "note": "(stereo unspecified)", "melting point": 176}
{"molecule": "OC(CCc1ccccc1)c1cnc2sc3c(n12)CCC3", "note": "(stereo unspecified)", "melting point": "117 to 118"}
{"molecule": "NC(=O)c1cccc(OCCCCCBr)c1", "melting point": "98 to 99"}
{"molecule": "CCCCC(Oc1ccc(C#N)cc1C=O)C(=O)OC", "note": "(stereo unspecified)", "melting point": "77 to 79"}
{"molecule": "O=C(CCCCCC(=O)NCCc1c[nH]c2ccccc12)NO", "melting point": "140 to 142"}
{"molecule": "CCOC(=O)c1c(C)nc(OCC)c2nnn(CC)c12", "melting point": "56 to 58"}
{"molecule": "COc1ccc(C(=O)O)cc1Oc1ccc(C(F)(F)F)cc1Cl", "melting point": "162 to 165"}
{"molecule": "COc1ccc(-c2nn(CC3CC3)c(=O)cc2-c2ccncc2)cc1", "melting point": "128 to 130"}
{"molecule": "COC(=O)C(C)(OCc1ccc2cc(OC)ccc2c1)C(F)(F)F", "note": "(stereo unspecified)", "melting point": "60 to 62"}
{"molecule": "Cc1c(NC(=O)CC(C)(C)C)c(C)c2c(c1-c1cccc(N)c1)OCC2c1ccc(C(C)C)cc1", "note": "(stereo unspecified)", "melting point": "170 to 172"}
{"molecule": "Cc1ccc(CCN(C)CCCCCC2Cc3cc(O)ccc3C3C(F)CC4(C)C(O)CCC4C23)cc1", "note": "(stereo unspecified)", "melting point": "142 to 143"}
{"molecule": "CC1CCN(c2cc(F)cc(C(=O)Nc3ccc(OCCN4CCOCC4)c4ccccc34)c2)CC1", "melting point": "116 to 118"}
{"molecule": "Cc1nc2cc(Br)cc(Br)c2o1", "melting point": "122 to 124"}
{"molecule": "O=C(OCC(F)(F)C(F)C(F)(F)F)C(F)CF", "note": "(stereo unspecified)", "melting point": "84 to 86"}
